In PubChem BioAssay (NCI):
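How tested: cells in 96-well plates exposed to compound for 48 hours at five concentrations. At the GI50, growth is halved. TGI marks complete inhibition of growth.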

Tests used:
Assay in all cases: NCI-60 cell line screen, 48 h
[1] = tested on: HCC-2998 colon
[2] = tested on: CAKI-1 renal
[3] = tested on: LOX IMVI melanoma
[4] = tested on: MDA-N
[5] = tested on: OVCAR-3 ovarian
[6] = tested on: HL-60(TB) leukemia
[7] = tested on: A549 NSCLC
[8] = tested on: HCT-116 colon
[9] = tested on: UACC-257 melanoma
[10] = tested on: RXF 393 renal
[11] = tested on: MALME-3M melanoma
[12] = tested on: EKVX NSCLC
[13] = tested on: U251 CNS
[14] = tested on: SK-MEL-2 melanoma
[15] = tested on: KM12 colon
[16] = tested on: NCI/ADR-RES ovarian

Structure (SMILES)	TGI [1]	TGI [2]	TGI [3]	TGI [4]	TGI [5]	TGI [6]	TGI [7]	TGI [8]	TGI [9]	TGI [10]	TGI [11]	TGI [12]	TGI [13]	TGI [14]	TGI [15]	TGI [16]	GI50 [2]	GI50 [4]	GI50 [6]
NC(=O)NC(=O)c1cccc(NC(=O)CCl)c1	1.81 µM	6 µM	2.17 µM	1.08 µM	1.44 µM	1.97 µM	> 28.1 µM	1.83 µM	13.6 µM	4.3 µM	> 48.1 µM	26.5 µM	2.41 µM	15.1 µM	2.43 µM	12 µM			
COc1cc(-c2ccccc2)cn2c1nc1ccccc12	33.7 µM	52.3 µM	52.4 µM	37.3 µM	40.8 µM	53.2 µM	51.4 µM	39.5 µM	47.5 µM	34.6 µM	41.9 µM		52.2 µM	44 µM	36.1 µM	66.7 µM			
CC(C)CC1NC(=O)CCC(NC(=O)C(Cc2ccc(O)cc2)NC(=O)OCc2ccccc2)C(=O)NC(Cc2ccccc2)C(=O)NC(Cc2ccccc2)NC1=O (stereo not given)	> 100 µM	> 100 µM	> 100 µM	> 100 µM	> 100 µM	> 100 µM	> 100 µM	> 100 µM	> 100 µM	> 100 µM	> 100 µM	> 100 µM	> 100 µM	> 100 µM	> 100 µM	> 100 µM			
CC1(C)CCC[C@@]2(C)C1CC[C@@]1(CO1)[C@@H]2/C=C\C(C=O)CC=O (stereo not given in full)	> 100 µM	> 100 µM	> 100 µM	> 100 µM	> 100 µM	> 74.4 µM	> 100 µM	> 100 µM	> 100 µM	> 100 µM	> 100 µM	> 100 µM	> 100 µM	> 100 µM	> 100 µM	> 100 µM			
O=Cc1ccc(-c2ccc(S(=O)(=O)O)cc2)o1	> 100 µM	> 100 µM	> 100 µM	> 100 µM	> 100 µM	> 100 µM	> 100 µM	> 100 µM	> 100 µM	> 100 µM	> 100 µM	> 100 µM	> 100 µM	> 100 µM	> 100 µM	> 100 µM			
N[C@H]1CCN(c2c(F)cc3c(=O)c(C(=O)O)cn4c3c2Oc2c-4ccc3c2ccc2ccccc23)C1		> 25.5 µM	22.9 µM	> 53.6 µM	> 100 µM	> 85.6 µM	> 100 µM	> 35.3 µM		16.6 µM	> 100 µM	> 24.7 µM	6.76 µM	> 100 µM	> 62.7 µM	> 100 µM			
CN1N=C(c2ccccc2)c2cc(Cl)ccc2N=C1N/N=C/c1ccc(N(C)C)cc1	> 100 µM	> 100 µM		> 100 µM	> 100 µM	> 100 µM	> 100 µM	> 100 µM	> 100 µM	> 100 µM		> 100 µM	> 100 µM		> 100 µM	> 100 µM			
Cc1nn(C(=O)c2ccc(Cl)cc2)c2c1C(c1ccc(Cl)cc1)SC(N)=N2 (stereo not given)	> 10 µM	> 10 µM	> 10 µM	> 10 µM	> 10 µM	> 10 µM	> 10 µM	> 10 µM	> 10 µM	> 10 µM	> 10 µM	> 10 µM	> 10 µM	> 10 µM	> 10 µM	> 10 µM			
O=C1c2c(O)cccc2Cc2cc(CO)cc(O)c21	18.4 µM			11.5 µM	5.03 µM	3.1 µM	9.08 µM	16.7 µM	5.64 µM		5.37 µM	9.62 µM	10.7 µM			15.1 µM			
COc1ccc2[nH]c3c(O)c(-c4c(C)cc5c([nH]c6ccc(OC)cc65)c4O)c(C)cc3c2c1	6.99 µM	8.39 µM	8.06 µM	8.22 µM	7.79 µM	4.96 µM	7.97 µM	7.63 µM	8.32 µM	8.82 µM		7.8 µM	7.98 µM	10.7 µM	7.74 µM	8.13 µM	4.27 µM	4.5 µM	0.0321 µM
CCOC(=O)c1csc(-c2cn(C)c3c2C(=O)C(OC)=CC3=O)n1	> 100 µM	> 100 µM	> 100 µM	> 50.1 µM	> 31.9 µM	> 100 µM	97.1 µM	> 100 µM	> 78.9 µM	71.8 µM		> 100 µM	> 100 µM	> 78 µM	> 71.8 µM	> 100 µM			
CC(=O)OC(C)c1cc2c(s1)C(=O)c1ccsc1C2=O (stereo not given)	1.54 µM	2.39 µM	0.119 µM	0.0544 µM	0.192 µM	0.0364 µM	2.66 µM	0.769 µM	0.156 µM	0.496 µM	0.246 µM	2.74 µM	1.11 µM	0.927 µM	0.306 µM	0.992 µM			
COc1cc(OC)nc(-n2c(N)c(C(=O)O)c3ccc([N+](=O)[O-])cc3c2=O)n1	> 100 µM	> 100 µM	> 100 µM	> 100 µM	> 100 µM	> 100 µM	> 100 µM	> 100 µM		> 100 µM	> 100 µM	> 100 µM	> 100 µM	> 100 µM	> 100 µM	> 100 µM			
CC1=NNC(=O)C1C1C=C(c2c[nH]c3ccccc23)OC1=O (stereo not given)		> 100 µM	> 100 µM	> 100 µM	> 100 µM	> 100 µM	> 100 µM	> 100 µM	> 100 µM	> 100 µM	> 100 µM	> 100 µM	> 100 µM	> 100 µM	> 100 µM	> 100 µM			
c1cc2c3ccsc3c3sccc3c2s1	> 100 µM	> 100 µM	> 100 µM	> 100 µM	> 100 µM	> 100 µM	> 100 µM	> 100 µM	> 100 µM	> 100 µM		> 100 µM	> 100 µM	> 100 µM	> 100 µM	> 100 µM			
COc1ccc(NC(=O)NNS(=O)(=O)c2ccc(C)cc2)cc1	> 100 µM	> 100 µM		> 100 µM		> 100 µM	> 100 µM	> 100 µM	> 100 µM	> 100 µM	> 100 µM	> 100 µM	> 100 µM	> 100 µM	> 100 µM	> 100 µM			

Structure (SMILES)	TGI [1]	TGI [2]	TGI [3]	TGI [4]	TGI [5]	TGI [6]	TGI [7]	TGI [8]	TGI [9]	TGI [10]	TGI [11]	TGI [12]	TGI [13]	TGI [14]	TGI [15]	TGI [16]	GI50 [2]	GI50 [4]	GI50 [6]
Oc1cccc2ccc(Br)nc12	> 100 µM	> 100 µM	> 100 µM	> 100 µM	> 100 µM	> 100 µM	> 100 µM	> 100 µM	> 100 µM	> 100 µM	> 100 µM	> 100 µM	> 100 µM		> 100 µM	> 100 µM			
Nn1c(CCCCCCCCc2n[nH]c(=S)n2N)n[nH]c1=S	> 100 µM	> 100 µM		> 100 µM	> 100 µM	> 100 µM	> 100 µM	> 100 µM	> 100 µM	> 100 µM	> 100 µM	> 100 µM	> 100 µM	> 100 µM	> 100 µM	> 100 µM			
CC(C)(C)OC(=O)C1/C(=C/CBr)CN1C(=O)OC(C)(C)C (stereo not given)	33.1 µM	30.5 µM	11.4 µM	29.7 µM	28.6 µM	7.5 µM	38 µM	26.7 µM	32.3 µM		35.4 µM	37.3 µM				72.1 µM			
Cc1ccc(O)c(C2=NNC(c3cccc(Cl)c3)C2)c1 (stereo not given)		> 100 µM	> 100 µM	88.1 µM	> 100 µM	> 100 µM	> 100 µM	> 100 µM	> 100 µM	64.6 µM	> 100 µM	> 100 µM	> 100 µM	94.1 µM	> 100 µM	> 100 µM			
Cc1cnc2[nH]c(-c3ccc(Cl)cc3)cc(=O)c2c1	70.1 µM	> 55.6 µM	> 100 µM	3.61 µM	> 24.4 µM	> 23.3 µM	> 100 µM	> 29.3 µM	> 100 µM		> 100 µM	> 100 µM	> 32.4 µM	> 100 µM	> 100 µM	> 26.3 µM			
O=c1[nH]c(=O)n(C2CC(O)C(COP(=O)(OCC(Cl)(Cl)Cl)OCC(Cl)(Cl)Cl)O2)cc1F (stereo not given)	1.62 µM	> 100 µM	> 100 µM	> 100 µM	> 100 µM	51 µM	> 100 µM	> 100 µM	> 100 µM		> 100 µM	> 100 µM	> 100 µM	> 100 µM	> 100 µM	> 100 µM			
CCOC(=O)c1nc2cc(F)cc(F)c2[nH]c1=O	> 100 µM	> 100 µM	> 100 µM	> 100 µM	> 100 µM	> 100 µM	> 100 µM	> 100 µM	> 100 µM				> 100 µM	> 100 µM	> 100 µM	> 100 µM			
O=c1c2ccccc2nc(N/N=C/c2ccc(Cl)cc2)n1-c1ccccc1	> 100 µM	> 100 µM	> 100 µM	> 100 µM	> 100 µM	> 100 µM	> 100 µM	> 100 µM	> 100 µM	> 100 µM	> 100 µM	> 100 µM	> 100 µM	77.2 µM		> 100 µM			
CN1CCN(Cc2ccccc2)CC1CC#N (stereo not given)	> 100 µM	> 100 µM	> 100 µM	> 100 µM	> 100 µM	> 100 µM	> 100 µM	> 100 µM	> 100 µM	> 100 µM	> 100 µM	> 100 µM	> 100 µM		> 100 µM	> 100 µM			
Nc1ncc2c(n1)-c1ccccc1OC2N1CCOCC1 (stereo not given)		> 100 µM	> 100 µM	> 100 µM	> 100 µM	> 100 µM	> 100 µM	> 100 µM	> 100 µM	> 100 µM	> 100 µM	> 100 µM	> 100 µM	> 100 µM	> 100 µM	> 100 µM			
COC(=O)[C@H](C)N(C)C(=O)[C@H](C)N1[C@@H](c2ccccc2)COC1(C)C		> 100 µM	> 100 µM	> 100 µM	> 100 µM	> 100 µM	> 100 µM	> 100 µM	> 100 µM	> 100 µM	> 100 µM	> 100 µM	> 100 µM	> 100 µM	> 100 µM	> 100 µM			
CC[C@]1(Cc2ccc(OC)c(OC)c2)C=[N+]([O-])O[C@H](OCc2ccccc2)[C@@H]1OC(C)=O	> 100 µM	80.9 µM	39.5 µM	> 100 µM	42.5 µM	36.3 µM	> 100 µM		> 100 µM	55.4 µM	52.9 µM	67.5 µM	> 100 µM	79.3 µM	58.8 µM	> 100 µM			
CC12CCC(=O)[C@@]1(C)CCCC2O (stereo not given in full)	> 100 µM	> 100 µM	> 100 µM	> 100 µM		> 100 µM	> 100 µM	> 100 µM	> 100 µM		> 100 µM	> 100 µM	> 100 µM	> 100 µM	> 100 µM	> 100 µM			
COc1cccc(CCn2c(N)c(C#N)c3ccc([N+](=O)[O-])cc3c2=O)c1	> 46.4 µM	> 46.4 µM	> 46.4 µM	> 100 µM	> 31.6 µM	> 46.4 µM	> 46.4 µM	> 46.4 µM	> 31.6 µM		> 31.6 µM	> 31.6 µM	> 100 µM	> 46.4 µM	> 31.6 µM	> 46.4 µM			
CCN1C/C(=C\c2ccc(Cl)cc2)c2[nH]c(=O)c(C#N)c(-c3ccc(Cl)cc3)c2C1	> 100 µM		> 100 µM	> 100 µM	> 100 µM	> 100 µM	> 100 µM	> 100 µM	> 100 µM	> 100 µM	> 100 µM	> 100 µM	> 100 µM	> 100 µM	> 100 µM	> 100 µM			
